# Data taken from PMC5529658, “Antiproliferative and Antibacterial Activities of Cirsium scabrum from Tunisia” (Evidence-based Complementary and Alternative Medicine : eCAM, 2017).
# Tests used:
# Assay in all cases: Antimicrobial assay (MIC, agar dilution)
# Format in all cases: cell-based
# Details in all cases: vancomycin
# [1] = tested on: Pseudomonas aeruginosa T41
# Experimental: (§1) The antimicrobial activity of crude extract and partitions was evaluated against 36 pathogenic microorganisms (22 Gram-positive bacteria, 13 Gram-negative bacteria, and 1 yeast) according to Mahamodo et al.. The 36 microorganisms were grown overnight at 37°C on sloping Mueller-Hinton (MH) agar medium. Briefly, the bacteria were diluted with Ringer's Cysteine (RC) solution to obtain 10^6 bacteria/ml. […] Inocula of 10^4 colony forming units (CFU) were spotted ultimately with a multipoint inoculator (Steers Replicator).
# [2] = tested on: Staphylococcus saprophyticus 8237
# Experimental: as §1
# [3] = tested on: Enterococcus faecalis T47A16
# Experimental: as §1
# [4] = tested on: Streptococcus agalactiae T53A4
# Experimental: as §1
# [5] = tested on: Staphylococcus aureus T281
# Experimental: as §1
# [6] = tested on: Dermabacter hominis T49B5
# Experimental: as §1
# [7] = tested on: Dermabacter hominis T47A7
# Experimental: as §1
# [8] = tested on: Staphylococcus pettenkoferi T33
# Experimental: as §1
# [9] = tested on: Staphylococcus aureus T306
# Experimental: as §1
# [10] = tested on: Staphylococcus pettenkoferi T282
# Experimental: as §1
# [11] = tested on: Staphylococcus aureus T61
# Experimental: as §1
# [12] = tested on: Enterococcus faecalis T37B1
# Experimental: as §1
# [13] = tested on: Corynebacterium striatum T46C1
# Experimental: as §1
# [14] = tested on: Staphylococcus aureus 8148
# Experimental: as §1
# [15] = tested on: Staphylococcus aureus T26A4
# Experimental: as §1
# [16] = tested on: Staphylococcus aureus 8142
# Experimental: as §1
# [17] = tested on: Staphylococcus capitis T29A2
# Experimental: as §1
# [18] = tested on: Staphylococcus lugdunensis T47B2
# Experimental: as §1
# [19] = tested on: Staphylococcus aureus 8143
# Experimental: as §1
# [20] = tested on: Staphylococcus aureus T11
# Experimental: as §1
# [21] = tested on: Staphylococcus lugdunensis T36A1
# Experimental: as §1
# [22] = tested on: Pseudomonas aeruginosa ATCC9027
# Experimental: as §1
# [23] = tested on: Staphylococcus epidermidis T151
# Experimental: as §1
# [24] = tested on: Corynebacterium striatum T40A3
# Experimental: as §1
# [25] = tested on: Staphylococcus capitis T21A3
# Experimental: as §1
# [26] = tested on: Staphylococcus aureus T2510
# Experimental: as §1
# Escherichia coli T20A2 = tested on: Escherichia coli T20A2
# Experimental: as §1
# [27] = tested on: Staphylococcus epidermidis T19A1
# Experimental: as §1
# [28] = tested on: Staphylococcus aureus T21
# Experimental: as §1
smiles,measurement,setting,value
"CN[C@H](CC(C)C)C(=O)N[C@H]1C(=O)N[C@@H](CC(N)=O)C(=O)N[C@H]2C(=O)N[C@H]3C(=O)N[C@H](C(=O)N[C@H](C(=O)O)c4cc(O)cc(O)c4-c4cc3ccc4O)[C@H](O)c3ccc(c(Cl)c3)Oc3cc2cc(c3O[C@@H]2O[C@H](CO)[C@@H](O)[C@H](O)[C@H]2O[C@H]2C[C@](C)(N)[C@H](O)[C@H](C)O2)Oc2ccc(cc2Cl)[C@H]1O [Vanc, vancomycin]",Reference antibiotics MIC values,[1],R (R: >16)
same,Reference antibiotics MIC values,[2],"S (Vanc (vancomycin), S: ≤4)"
same,Reference antibiotics MIC values,[3],"S (Vanc (vancomycin), S: ≤4)"
same,Reference antibiotics MIC values,[4],R (R: >16)
same,Reference antibiotics MIC values,[5],"S (Vanc (vancomycin), S: ≤4)"
same,Reference antibiotics MIC values,[6],"S (Vanc (vancomycin), S: ≤4)"
same,Reference antibiotics MIC values,[7],"S (Vanc (vancomycin), S: ≤4)"
same,Reference antibiotics MIC values,[8],"S (Vanc (vancomycin), S: ≤4)"
same,Reference antibiotics MIC values,[9],"S (Vanc (vancomycin), S: ≤4)"
same,Reference antibiotics MIC values,[10],"S (Vanc (vancomycin), S: ≤4)"
same,Reference antibiotics MIC values,[11],"S (Vanc (vancomycin), S: ≤4)"
same,Reference antibiotics MIC values,[12],"S (Vanc (vancomycin), S: ≤4)"
same,Reference antibiotics MIC values,[13],"S (Vanc (vancomycin), S: ≤4)"
same,Reference antibiotics MIC values,[14],"S (Vanc (vancomycin), S: ≤4)"
same,Reference antibiotics MIC values,[15],"S (Vanc (vancomycin), S: ≤4)"
same,Reference antibiotics MIC values,[16],"S (Vanc (vancomycin), S: ≤4)"
same,Reference antibiotics MIC values,[17],"S (Vanc (vancomycin), S: ≤4)"
same,Reference antibiotics MIC values,[18],"S (Vanc (vancomycin), S: ≤4)"
same,Reference antibiotics MIC values,[19],"S (Vanc (vancomycin), S: ≤4)"
same,Reference antibiotics MIC values,[20],"S (Vanc (vancomycin), S: ≤4)"
same,Reference antibiotics MIC values,[21],"S (Vanc (vancomycin), S: ≤4)"
same,Reference antibiotics MIC values,[22],R (R: >16)
same,Reference antibiotics MIC values,[23],"S (Vanc (vancomycin), S: ≤4)"
same,Reference antibiotics MIC values,[24],"S (Vanc (vancomycin), S: ≤4)"
same,Reference antibiotics MIC values,[25],"S (Vanc (vancomycin), S: ≤4)"
same,Reference antibiotics MIC values,[26],"S (Vanc (vancomycin), S: ≤4)"
same,Reference antibiotics MIC values,Escherichia coli T20A2,R (R: >16)
same,Reference antibiotics MIC values,[27],R (R: >16)
same,Reference antibiotics MIC values,[28],"S (Vanc (vancomycin), S: ≤4)"
